Where two headings read alike, the source gives them in different places.
Tests used:
Fusarium graminearum [1] = experiment: microbe, parasite or virus in culture; assay type: cell-based
[2] = logP at pH 3.5, given with the characterisation data; assay type: physicochemical; conditions: pH3.5
Fusarium proliferatum = experiment: microbe, parasite or virus in culture; assay type: cell-based; conditions: 120 h, read-out: inhibition of Fumonisin FB1 production
Alternaria solani = experiment: Alternaria test (tomato) / preventive; assay type: in vivo; conditions: 500ppm of active ingredient, evaluated 7 days after the inoculation
Procedure: (§1) To produce a suitable preparation of active compound, 1 part by weight of active compound is mixed with the stated amounts of solvent and emulsifier, and the concentrate is diluted with water to the desired concentration.
To test for preventive activity, young plants are sprayed with the preparation of active compound at the stated rate of application. One day after this treatment, the plants are inoculated with an aqueous spore suspension of Alternaria solani. The plants remain for one day in an incubation cabinet at approximately 22°C and a relative atmospheric humidity of 100%. Then the plants are placed in an incubation cabinet at approximately 20°C and a relative atmospheric humidity of 96%.
The test is evaluated 7 days after the inoculation. 0% means an efficacy which corresponds to that of the control while an efficacy of 100% means that no disease is observed.

Pyrenophora teres = experiment: Pyrenophora test (barley) / preventive; assay type: in vivo; conditions: 500ppm of active ingredient, evaluated 7-9 days after the inoculation
Procedure: as §1
To test for preventive activity, young plants are sprayed with the preparation of active compound at the stated rate of application. One day after this treatment, the plants are inoculated with an aqueous spore suspension of Pyrenophora teres. The plants remain for 48 hours in an incubation cabinet at 22°C and a relative atmospheric humidity of 100%. Then the plants are placed in a greenhouse at a temperature of approximately 20°C and a relative atmospheric humidity of approximately 80%.
The test is evaluated 7-9 days after the inoculation. 0% means an efficacy which corresponds to that of the control while an efficacy of 100% means that no disease is observed.

Botrytis cinerea = experiment: Botrytis test (beans) / protective; assay type: in vivo; conditions: 250ppm of active ingredient, lesion size 2 days after the inoculation
Procedure: as §1
To test for protective activity, young plants are sprayed with the preparation of active compound. After the spray coating has dried on, 2 small pieces of agar covered with growth of Botrytis cinerea are placed on each leaf. The inoculated plants are placed in a darkened chamber at 20°C and a relative atmospheric humidity of 100%.
2 days after the inoculation, the size of the lesions on the leaves is evaluated. 0% means an efficacy which corresponds to that of the control, while an efficacy of 100% means that no disease is observed.

Fusarium graminearum [3] = assay type: in vivo; conditions: barley, preventive, 1000ppm of active ingredient, evaluated 5 days after the inoculation
Venturia inaequalis = experiment: Venturia test (apples) / protective; assay type: in vivo; conditions: 100ppm of active ingredient, evaluated 10 days after the inoculation
Procedure: as §1
To test for protective activity, young plants are sprayed with the preparation of active compound at the stated rate of application. After the spray coating has dried on, the plants are inoculated with an aqueous conidia suspension of the causal agent of apple scab (Venturia inaequalis) and then remain for 1 day in an incubation cabinet at approximately 20°C and a relative atmospheric humidity of 100 %.
The plants are then placed in a greenhouse at approximately 21°C and a relative atmospheric humidity of approximately 90 %.
The test is evaluated 10 days after the inoculation. 0% means an efficacy which corresponds to that of the control, while an efficacy of 100% means that no disease is observed.

| SMILES | inhibition at 50 µM (Fusarium graminearum [1]; 72 h, read-out: Growth inhibition of Fusarium graminearum) [%] | inhibition at 50 µM (Fusarium graminearum [1]; 168 h, read-out: inhibition of DON/AcDON) [%] | logD [2] | inhibition at 50 µM (Fusarium proliferatum) [%] | efficacy (Alternaria solani) [%] | efficacy (Pyrenophora teres) [%] | efficacy (Botrytis cinerea) [%] | efficacy (Fusarium graminearum [3]) [%] | efficacy (Venturia inaequalis) [%] |
| --- | --- | --- | --- | --- | --- | --- | --- | --- | --- |
| Fc1ccc(-c2c(-c3ccncc3)[nH]c3nccnc23)cc1 [Compound 1, 7-(4-fluorophenyl)-6-(pyridin-4-yl)-5H-Pyrrolo[2,3-b]pyrazine] | > 80 | > 80 | 1.33 | > 80 | ≥ 70 | ≥ 70 |  |  |  |
| C#CCn1c(-c2ccncc2)c(-c2ccc(F)cc2)c2nccnc21 [Compound 2, 7-(4-fluorophenyl)-5-(prop-2-ylyl)-6-(pyridin-4-yl)-5H-pyrrolo[2,3-b]pyrazine] |  |  | 2.22 | > 80 | ≥ 70 | ≥ 70 | ≥ 70 | ≥ 70 | ≥ 70 |

From patent EP2338890A1, “4,7-Diazaindole derivatives and their use as fungicides” (Bayer CropScience AG, priority 2009, dated 2011)
